Laboratory results taken from patent publication US4202892A, “Biocidal methyladamantyl hydrazines and pharmaceutical compositions containing them” (Teva Pharmaceutical Industries, Ltd., priority 1977, dated 1980).
Where “and” joins values, the source holds several entries; their conditions need not be identical. Equal entries are not always repeated. Structures can show the parent of a compound that is named as a salt.

Tests used:
L. tropica promastigotes = L. tropica promastigotes in Mc Coy's medium in vitro at 27° C.; type: cell-based
Description: (§1) A. Scoring of drug activity:
(§2) b. promastigotes in Mc Coy's medium in vitro at 27° C.
+++=no viable parasites after 24 hours
++=no viable parasites after 48 hours
+=no viable parasites after 72 hours
±=no viable parasites after 96 hours
-=viable parasites after 120 hours.

Leishmania = assay: Anti Leishmania tests (amastigotes and promastigotes), summary; type: cell-based, L. tropica
Description: as §1
(§3) a. amastigotes in peritoneal exudate cells in Mc Coy's medium in vitro at 37° C.
as §2

L. tropica amastigotes = L. tropica amastigotes in peritoneal exudate cells in Mc Coy's medium in vitro at 37° C.; type: cell-based
Description: as §1, §3
+++=clearance of all parasites in 24 hrs
++=clearance of all parasites in 48 hrs
+=clearance of all parasites in 72 hrs
±=partial clearance of parasites in 72 hours or more
-=no activity against parasites.

Trypanosoma = Trypanosoma in RPMI medium in vitro at 37° C.; type: cell-based; settings: for Trypanosoma in vitro, activity score: RPMI medium, 37° C.; for active against Trypanosoma: summary
Description: Trypanosoma in RPMI medium in vitro at 37° C. Scoring as in b.

[1] = system: 4 mycoplasma (M. gallisepticum, capricolum, M. hominis, A. laidlawii); assay: organism not typed; type: cell-based; settings: read-out: 50% inhibition of growth in liquid medium, concentration
Candida albicans = assay: Antimycotic activity (human), growth on Sabouraud dextrose agar; type: cell-based; parameters: key to the marks not given beside the values
Description: Control (full growth): ++++

HSV-1 (Herpes Simplex) = assay: Inhibition test on HSV replication; type: cell-based; settings: Human alphaherpesvirus 1, BSC-1 cells, 10 PFU/cell; for inhibition at 25 µg/mL: 25 μg/ml; for inhibition at 50 µg/mL: 50 μg/ml; for inhibition at 100 µg/mL: 100 μg/ml
Description: |INHIBITION TEST ON HSV REPLICATION |Cells |BSC-1 (Green monkey Kidney) |Virus |HSV-1 (Herpes Simplex) |Inoculum |10 PFU/cell |Medium |DMEM + 10% C.S. | Herpes | J. Levitt & Y. Becker | Virology 31, 129-134 (1967) | **% Inhibition of control infected for some time with same virus PFV with | no inhibition.

[2] = system: stereotyped behaviour (sniffing, biting, repetitive head movement); assay: Stereotyped behaviour in mice; type: in vivo, Male ICR albino mice; parameters: stereotyped behaviour score / Total Score (stereotyped behaviour) / Mean Score (stereotyped behaviour): scale not given here; settings: for Total Score (stereotyped behaviour): 0-240 min; for Total Score (stereotyped behaviour) / stereotyped behaviour score / Mean Score (stereotyped behaviour): 50 mg/kg i.p.; for Total Score (stereotyped behaviour) / stereotyped behaviour score: one line per mouse, in order Mouse 1 to Mouse 4; for Mean Score (stereotyped behaviour): mean of 4 mice
Description: Male ICR albino mice weighing 25-30 g were put in cages with a metal grid floor, 4 in each cage. Drugs were injected intraperitoneally and stereotyped behaviour (sniffing, biting, repetitive head movement) was evaluated every 30 min.

[3] = Toxic limit in the HSV replication test; type: cell-based, Green monkey; settings: monkey, bsc-1 cells; read-out: T.L. Toxic Limit (highest concentration of compound which is completely not toxic)
Description: BSC-1 (Green monkey Kidney)
*T.L. The highest concentration of compound which is completely not toxic

[4] = system: haloperidol-induced catalepsy; assay: Antiparkinson activity: anticataleptic effect in rats (haloperidol catalepsy); type: in vivo, Male Charles River albino rats; settings: individual rats, 80 mg/kg i.p., one line per rat
Description: (§4) Male Charles River albino rats, weighing 200-250 g, were used. Catalepsy was produced by haloperidol, 5 mg/kg i.p. The animals were placed with their front paws on a horizontal bar, about 10 cm above the ground, and animals were considered cataleptic if not changing posture for at least 30 sec. Cataleptic animals were injected l.p. with one of the drugs at a dose of 40-80 mg/kg. Catalepsy was estimated again at the intervals indicated.
as §4, with “rats, wighing” for “rats, weighing”, “injected i.p.” for “injected l.p.”, “mg/kg. catalepsy” for “mg/kg. Catalepsy”

Trichophyton rubrum = assay: Antimycotic activity (human), growth on Sabouraud dextrose agar; parameters: key to the marks not given beside the values; settings: 10 μg/ml
[5] = system: Trichophyton mentagrophytes; assay: as above; parameters: key to the marks not given beside the values; settings: 10 μg/ml

Q: For `CNNCC12CC3CC(CC(C3)C1)C2` [Example 1, 1-(Adamant-1'-ylmethyl)-2-methylhydrazine hydrochloride], which “Leishmania promastigote, activity score” value (L. tropica promastigotes; 10 μg) is on record?
A: - (viable parasites after 120 hours.)

Q: And the “Leishmania promastigote, activity score” value (L. tropica promastigotes; 100 μg)?
A: +++ (no viable parasites after 24 hours)

Q: What about the “active against Leishmania” value (Leishmania) of the same compound?
A: active

Q: And the “Leishmania amastigote, activity score” value (L. tropica amastigotes; 10 μg)?
A: ± (partial clearance of parasites in 72 hours or more)

Q: And the “Leishmania amastigote, activity score” value (L. tropica amastigotes; 100 μg)?
A: ± (partial clearance of parasites in 72 hours or more)

Q: And the “Trypanosoma in vitro, activity score” value (Trypanosoma; 10 μg)?
A: ± (no viable parasites after 96 hours)

Q: And the “Trypanosoma in vitro, activity score” value (Trypanosoma; 100 μg)?
A: +++ (no viable parasites after 24 hours)

Q: What about the “active against Trypanosoma” value (Trypanosoma) of the same compound?
A: active

Q: With `c1ccc(CNNCC23CC4CC(CC(C4)C2)C3)cc1` [Example 3, 1-(Adamant-1'-ylmethyl)-2-benzylhydrazine hydrochloride] as the compound, how does the IC50 [1] read?
A: 5 to 30 µg/mL

Q: And the “growth of C. albicans” value (Candida albicans; 10 μg/ml)?
A: ++++

Q: And the “growth of C. albicans” value (Candida albicans; 50 μg/ml)?
A: ++++

Q: What about the “growth of C. albicans” value (Candida albicans; 100 μg/ml) of the same compound?
A: ++++

Q: Which results are given for `C1CCN(NCC23CC4CC(CC(C4)C2)C3)C1` [Example 7, 1-(Adamant-1'-ylmethylamino)pyrrolidine hydrochloride]?
A: IC50 [1]: 5 to 30 µg/mL; inhibition at 25 µg/mL (HSV-1 (Herpes Simplex)): 72.5%; inhibition at 50 µg/mL (HSV-1 (Herpes Simplex)): 92%; inhibition at 75 µg/mL (HSV-1 (Herpes Simplex); 75 μg/ml): 98%; inhibition at 100 µg/mL (HSV-1 (Herpes Simplex)): 99.9%; Total Score (stereotyped behaviour) ([2]; hydrochloride, 50 mg/kg): 17 and 11 and 6 and 3; stereotyped behaviour score ([2]; 0 min): 0; stereotyped behaviour score ([2]; 30 min, hydrochloride, 50 mg/kg): 2 and 0 (3×); stereotyped behaviour score ([2]; 45 min, hydrochloride, 50 mg/kg): 2 and 0 (2×) and 1; stereotyped behaviour score ([2]; 60 min, hydrochloride, 50 mg/kg): 2 and 0 (3×); stereotyped behaviour score ([2]; 90 min, hydrochloride, 50 mg/kg): 2 (2×) and 0 (2×); stereotyped behaviour score ([2]; 120 min, hydrochloride, 50 mg/kg): 2 (2×) and 0 (2×); stereotyped behaviour score ([2]; 135 min, hydrochloride, 50 mg/kg): 2 (2×) and 0 (2×); stereotyped behaviour score ([2]; 150 min, hydrochloride, 50 mg/kg): 2 (2×) and 1 and 0; stereotyped behaviour score ([2]; 180 min, hydrochloride, 50 mg/kg): 1 (3×) and 0; stereotyped behaviour score ([2]; 210 min, hydrochloride, 50 mg/kg): 1 (2×) and 2 (2×); stereotyped behaviour score ([2]; 240 min): 1; Mean Score (stereotyped behaviour) [2]: 9.25; found to be active ([2]; summary of the CNS tests): active; MNTC [3]: 50 µg/mL; anticataleptic effect ([4]; in order rat 1 to rat 5, hydrochloride): 1/4 and 0/4 (3×) and 3/4

Q: For `C1CCN(NCC23CC4CC(CC(C4)C2)C3)CC1` [Example 8, 1-(Adamant-1'-ylmethylamino)piperidine hydrochloride], which “growth of T. rubrum” value (Trichophyton rubrum) is on record?
A: ++++

Q: And the IC50 [1]?
A: 5 to 30 µg/mL

Q: And the “growth of T. mentagrophytes” value [5]?
A: ++++

Q: What about the “growth of C. albicans” value (Candida albicans; 10 μg/ml) of the same compound?
A: ++++

Q: What about the “growth of C. albicans” value (Candida albicans; 50 μg/ml) of the same compound?
A: ++++

Q: What about the “growth of C. albicans” value (Candida albicans; 100 μg/ml) of the same compound?
A: ++++

Q: For `NNCC12CC3CC(CC(C3)C1)C2` [Example 14, (Adamant-1-ylmethyl)hydrazine hydrochloride], which “active against Leishmania” value (Leishmania) is on record?
A: active

Q: What about the “Leishmania amastigote, activity score” value (L. tropica amastigotes; 10 μg) of the same compound?
A: ± (partial clearance of parasites in 72 hours or more)

Q: What about the “Leishmania amastigote, activity score” value (L. tropica amastigotes; 100 μg) of the same compound?
A: ++ (clearance of all parasites in 48 hrs)

Q: And the “Trypanosoma in vitro, activity score” value (Trypanosoma; 10 μg)?
A: +++ (no viable parasites after 24 hours)

Q: And the “Trypanosoma in vitro, activity score” value (Trypanosoma; 100 μg)?
A: +++ (no viable parasites after 24 hours)

Q: What about the “active against Trypanosoma” value (Trypanosoma) of the same compound?
A: active

Q: What does the source list for `CN(N)CC12CC3CC(CC(C3)C1)C2` [Example 15, 1-Methyl-1-(adamant-1'-ylmethyl)hydrazine hydrochloride hydrate]?
A: Leishmania promastigote, activity score (L. tropica promastigotes; 10 μg): - (viable parasites after 120 hours.); Leishmania promastigote, activity score (L. tropica promastigotes; 100 μg): +++ (no viable parasites after 24 hours); active against Leishmania (Leishmania): active

Q: What does the source list for `CN(N)CC1C2CC3CC(C2)CC1C3` (stereo not drawn) [Example 16, 1-Methyl-1-(adamant-2'-ylmethyl)hydrazine hydrochloride]?
A: growth of C. albicans (Candida albicans; 10 μg/ml): ++++; growth of C. albicans (Candida albicans; 50 μg/ml): ++++

Q: Which IC50 [1] does the source give for `c1ccc(CCNNCC23CC4CC(CC(C4)C2)C3)cc1` [Example 25, 1-(Adamant-1'-ylmethyl)-2-phenethylhydrazine dihydrate] here?
A: 5 to 30 µg/mL

Q: For `C1CCN(NCC2C3CC4CC(C3)CC2C4)C1` (stereo not drawn) [Example 31, 1-(Adamant-2'-ylmethylamino)pyrrolidine hydrochloride], which inhibition at 25 µg/mL (HSV-1 (Herpes Simplex)) is on record?
A: 51%

Q: What about the inhibition at 50 µg/mL (HSV-1 (Herpes Simplex)) of the same compound?
A: 91%

Q: And the inhibition at 100 µg/mL (HSV-1 (Herpes Simplex))?
A: 97%

Q: Which “growth of T. rubrum” value (Trichophyton rubrum) does the source give for `CC(C)N(N)CC12CC3CC(CC(C3)C1)C2` [Example 38, 1-(Adamant-1'-ylmethyl)-1-isopropylhydrazine hydrochloride] here?
A: ++++

Q: And the IC50 [1]?
A: 5 to 30 µg/mL

Q: And the “growth of T. mentagrophytes” value [5]?
A: ++++

Q: What about the “growth of C. albicans” value (Candida albicans; 10 μg/ml) of the same compound?
A: ++++

Q: And the “growth of C. albicans” value (Candida albicans; 50 μg/ml)?
A: ++++

Q: And the “growth of C. albicans” value (Candida albicans; 100 μg/ml)?
A: ++++

Q: Which “Leishmania promastigote, activity score” value (L. tropica promastigotes; 10 μg) does the source give for `N=C(N)c1ccc(OCCCCCOc2ccc(C(=N)N)cc2)cc1` [Pentamidine, reference compound] here?
A: +++ (no viable parasites after 24 hours)

Q: And the “Leishmania promastigote, activity score” value (L. tropica promastigotes; 100 μg)?
A: +++ (no viable parasites after 24 hours)

Q: And the “Trypanosoma in vitro, activity score” value (Trypanosoma; 10 μg)?
A: - (viable parasites after 120 hours.)

Q: What about the “Trypanosoma in vitro, activity score” value (Trypanosoma; 100 μg) of the same compound?
A: ++ (no viable parasites after 48 hours)

Q: For `NC12CC3CC(CC(C3)C1)C2` [Symmetrel, reference compound], which “Total Score (stereotyped behaviour)” value ([2]; 50 mg/kg) is on record?
A: 17 (3×) and 13

Q: What about the stereotyped behaviour score ([2]; 0 min) of the same compound?
A: 0

Q: What about the stereotyped behaviour score ([2]; 30 min) of the same compound?
A: 1

Q: And the stereotyped behaviour score ([2]; 45 min)?
A: 1

Q: What about the stereotyped behaviour score ([2]; 60 min, 50 mg/kg) of the same compound?
A: 2 (2×) and 1 (2×)

Q: And the stereotyped behaviour score ([2]; 90 min, 50 mg/kg)?
A: 1 (3×) and 2

Q: And the stereotyped behaviour score ([2]; 120 min)?
A: 2

Q: And the stereotyped behaviour score ([2]; 135 min)?
A: 2

Q: And the stereotyped behaviour score ([2]; 150 min)?
A: 2

Q: What about the stereotyped behaviour score ([2]; 180 min) of the same compound?
A: 2

Q: And the stereotyped behaviour score ([2]; 210 min, 50 mg/kg)?
A: 2 (3×) and 1

Q: And the stereotyped behaviour score ([2]; 240 min, 50 mg/kg)?
A: 2 (3×) and 0

Q: What about the “Mean Score (stereotyped behaviour)” value [2] of the same compound?
A: 16

Q: And the anticataleptic effect ([4]; in order rat 1 to rat 5)?
A: 0/4 and 2/4 and 3/4 (3×)
